Converted amounts (≈) assume the structure as drawn. Where two headings read alike, the source gives them in different places. Non-standard residues stand in square brackets, D forms with d. Residues, ends and D or L forms follow the SMILES beside them. ξ: configuration not given here. Trp(5-F) = N[C@@H](Cc1c[nH]c2ccc(F)cc12)C(=O)O; dTrp(5-F) = N[C@H](Cc1c[nH]c2ccc(F)cc12)C(=O)O; ξTrp(5-OMe) = COc1ccc2[nH]cc(CC(N)C(=O)O)c2c1; ξTrp(7-aza) = NC(Cc1c[nH]c2ncccc12)C(=O)O
What was measured:
Assay type in all cases: cell-based
[1] = tested on: Pseudomonas aeruginosa (ATCC 27853)
Text: (§1) The bacterial strains for the antimicrobial assay were obtained from the ATCC (American Type Culture Collection, Manassas, VA, USA) and NCTC (National Collection of Type Cultures, Salisbury, UK). Gram-negative strains were Pseudomonas aeruginosa (ATCC 27853), Escherichia coli (ATCC 8739, ATCC 35218, and ATCC 25922), Salmonella enterica (ATCC 13076), Klebsiella pneumoniae (NCTC 13440), Acinetobacter baumannii (ATCC 17978) and the Gram-positive strains were Enterococcus faecalis (ATCC 29212), Listeria monocytogenes (ATCC 19111), and Staphylococcus aureus (HNCMO112011 and ATCC 25923).
(§2) Determination of antibacterial activity for the peptides was carried out by utilizing a minimum bactericidal concentration (MBC) bioassay. Synthesized peptides were dissolved in sterile water and used from 25 to 0.125 μM in 2-fold dilution series and incubated with ~10^7 log phase bacteria in Potassium-Phosphate Buffer (PPB, pH: 7.4) for three hours as described earlier. After that, 5 μl of each sample was placed on LB agar and the growth of bacteria was monitored after overnight incubation at 37 °C. The lowest concentration of the antimicrobial agents that completely eliminated viable bacteria was considered the minimal bactericidal concentration (MBC).

[2] = tested on: Listeria monocytogenes (ATCC 19111); conditions: ATCC 19111, 3 h, pH 7.4
Text: as §1, §2

[3] = tested on: Staphylococcus aureus (HNCMO112011); conditions: HNCMO112011, 3 h, pH 7.4
Text: as §1, §2

[4] = tested on: Salmonella enterica (ATCC 13076); conditions: ATCC 13076, 3 h, pH 7.4
Text: as §1, §2

[5] = tested on: Enterococcus faecalis (ATCC 29212); conditions: ATCC 29212, 3 h, pH 7.4
Text: as §1, §2

[6] = tested on: Klebsiella pneumoniae (NCTC 13440)
Text: as §1, §2

[7] = tested on: Acinetobacter baumannii (ATCC 17978); conditions: ATCC 17978, 3 h, pH 7.4
Text: as §1, §2

[8] = tested on: tested bacteria (ESKAPE pathogens, Listeria monocytogenes, Salmonella enterica)
Text: as §1, §2

[9] = tested on: Escherichia coli (ATCC 8739); conditions: ATCC 8739, 3 h, pH 7.4
Text: as §1, §2

[10] = summary over the tested bacterial species, 3 h in PPB pH 7.4

| Structure (SMILES) | Minimal bactericidal concentration (MBC) P. a. ([1]; ATCC 27853, 3 h, pH 7.4) | Minimal bactericidal concentration (MBC) L. m. [2] | Minimal bactericidal concentration (MBC) S. a. [3] | Minimal bactericidal concentration (MBC) S. e. [4] | Minimal bactericidal concentration (MBC) E. f. [5] | Minimal bactericidal concentration (MBC) K. p. ([6]; NCTC 13440, 3 h, pH 7.4) | Minimal bactericidal concentration (MBC) A. b. [7] | MBC against most or all of the tested bacteria [8, 10] | Minimal bactericidal concentration (MBC) E. c. [9] | Minimal bactericidal concentration (MBC) K. p. ([6]; Klebsiella pneumoniae NCTC 13440, ~10^7 log phase bacteria, 3 h in PPB pH 7.4, peptide 25 to 0.125 μM 2-fold series, plated on LB agar, overnight 37 °C) | MBC against most or all of the tested bacteria ([8]; 3 h, pH 7.4) | Minimal bactericidal concentration (MBC) P. a. ([1]; Pseudomonas aeruginosa ATCC 27853, ~10^7 log phase bacteria, 3 h in PPB pH 7.4, peptide 25 to 0.125 μM 2-fold series, plated on LB agar, overnight 37 °C) |
| --- | --- | --- | --- | --- | --- | --- | --- | --- | --- | --- | --- | --- |
| CC[C@H](C)[C@H](NC(=O)[C@H](CCCCN)NC(=O)[C@H](Cc1ccccc1)NC(=O)[C@H](CC(C)C)NC(=O)[C@@H]1CCCN1C(=O)[C@H](CCCCN)NC(=O)[C@H](CCCCN)NC(=O)[C@H](CO)NC(=O)[C@@H](N)CCCCN)C(=O)N[C@H](Cc1c[nH]c2ccc(F)cc12)C(=O)N[C@@H](CCCCN)C(=O)N[C@@H](CO)C(=O)N[C@H](C(=O)N[C@@H](CCC(=O)O)C(=O)N[C@@H](CC(N)=O)C(=O)N[C@H](C(=O)N[C@@H](CO)C(=O)N[C@H](C(=O)N[C@@H](CC(C)C)C(=O)N[C@@H](Cc1c[nH]c2ccccc12)C(=O)N[C@@H](Cc1ccc(O)cc1)C(=O)N[C@@H](CCCCN)C(N)=O)C(C)C)C(C)C)C(C)C [NCR169C17–38C12,17/S-10W^5-F-D] (H-KSKKPLFKI[dTrp(5-F)]KSVENVSVLWYK-NH2; N-terminus assumed) | 3.1 µM (≈ 8.45 µg/mL) | 6.3 µM (≈ 17.2 µg/mL) | 3.1 µM (≈ 8.45 µg/mL) | 3.1 µM (≈ 8.45 µg/mL) | 1.6 µM (≈ 4.36 µg/mL) | 3.1 µM (≈ 8.45 µg/mL) | 1.6 µM (≈ 4.36 µg/mL) | 1.6—6.3 µM | 1.6 µM (≈ 4.36 µg/mL) |  |  |  |
| CC[C@H](C)[C@H](NC(=O)[C@H](CCCCN)NC(=O)[C@H](Cc1ccccc1)NC(=O)[C@H](CC(C)C)NC(=O)[C@@H]1CCCN1C(=O)[C@H](CCCCN)NC(=O)[C@H](CCCCN)NC(=O)[C@H](CO)NC(=O)[C@@H](N)CCCCN)C(=O)N[C@@H](Cc1c[nH]c2ccc(F)cc12)C(=O)N[C@@H](CCCCN)C(=O)N[C@@H](CO)C(=O)N[C@H](C(=O)N[C@@H](CCC(=O)O)C(=O)N[C@@H](CC(N)=O)C(=O)N[C@H](C(=O)N[C@@H](CO)C(=O)N[C@H](C(=O)N[C@@H](CC(C)C)C(=O)N[C@@H](Cc1c[nH]c2ccccc12)C(=O)N[C@@H](Cc1ccc(O)cc1)C(=O)N[C@@H](CCCCN)C(N)=O)C(C)C)C(C)C)C(C)C [NCR169C17–38C12,17/S-10W^5-F-L] (H-KSKKPLFKI[Trp(5-F)]KSVENVSVLWYK-NH2; N-terminus assumed) | 1.6 µM (≈ 4.36 µg/mL) | 1.6 µM (≈ 4.36 µg/mL) | 1.6 µM (≈ 4.36 µg/mL) | 1.6 µM (≈ 4.36 µg/mL) | 1.6 µM (≈ 4.36 µg/mL) | 3.1 µM (≈ 8.45 µg/mL) | 1.6 µM (≈ 4.36 µg/mL) | 1.6—6.3 µM | 1.6 µM (≈ 4.36 µg/mL) | 3.1 µM (≈ 8.45 µg/mL) | 1.6 µM |  |
| CC[C@H](C)[C@H](NC(=O)[C@H](CCCCN)NC(=O)[C@H](Cc1ccccc1)NC(=O)[C@H](CC(C)C)NC(=O)[C@@H]1CCCN1C(=O)[C@H](CCCCN)NC(=O)[C@H](CCCCN)NC(=O)[C@H](CO)NC(=O)[C@@H](N)CCCCN)C(=O)NC(Cc1c[nH]c2ccc(OC)cc12)C(=O)N[C@@H](CCCCN)C(=O)N[C@@H](CO)C(=O)N[C@H](C(=O)N[C@@H](CCC(=O)O)C(=O)N[C@@H](CC(N)=O)C(=O)N[C@H](C(=O)N[C@@H](CO)C(=O)N[C@H](C(=O)N[C@@H](CC(C)C)C(=O)N[C@@H](Cc1c[nH]c2ccccc12)C(=O)N[C@@H](Cc1ccc(O)cc1)C(=O)N[C@@H](CCCCN)C(N)=O)C(C)C)C(C)C)C(C)C (stereo partly shown) [NCR169C17–38C12,17/S-10W^5-MeO II] (H-KSKKPLFKI[ξTrp(5-OMe)]KSVENVSVLWYK-NH2; N-terminus assumed) |  | 3.1 µM (≈ 8.49 µg/mL) | 3.1 µM (≈ 8.49 µg/mL) | 3.1 µM (≈ 8.49 µg/mL) | 3.1 µM (≈ 8.49 µg/mL) | 3.1 µM (≈ 8.49 µg/mL) | 3.1 µM (≈ 8.49 µg/mL) |  | 3.1 µM (≈ 8.49 µg/mL) |  | 3.1 µM | 25 µM (≈ 68.4 µg/mL) |
| CC[C@H](C)[C@H](NC(=O)[C@H](CCCCN)NC(=O)[C@H](Cc1ccccc1)NC(=O)[C@H](CC(C)C)NC(=O)[C@@H]1CCCN1C(=O)[C@H](CCCCN)NC(=O)[C@H](CCCCN)NC(=O)[C@H](CO)NC(=O)[C@@H](N)CCCCN)C(=O)NC(Cc1c[nH]c2ccc(OC)cc12)C(=O)N[C@@H](CCCCN)C(=O)N[C@@H](CO)C(=O)N[C@H](C(=O)N[C@@H](CCC(=O)O)C(=O)N[C@@H](CC(N)=O)C(=O)N[C@H](C(=O)N[C@@H](CO)C(=O)N[C@H](C(=O)N[C@@H](CC(C)C)C(=O)N[C@@H](Cc1c[nH]c2ccccc12)C(=O)N[C@@H](Cc1ccc(O)cc1)C(=O)N[C@@H](CCCCN)C(N)=O)C(C)C)C(C)C)C(C)C (stereo partly shown) [NCR169C17–38C12,17/S-10W^5-MeO I] (H-KSKKPLFKI[ξTrp(5-OMe)]KSVENVSVLWYK-NH2; N-terminus assumed) |  | 1.6 µM (≈ 4.38 µg/mL) | 1.6 µM (≈ 4.38 µg/mL) | 1.6 µM (≈ 4.38 µg/mL) | 1.6 µM (≈ 4.38 µg/mL) | 1.6 µM (≈ 4.38 µg/mL) | 1.6 µM (≈ 4.38 µg/mL) |  | 3.1 µM (≈ 8.49 µg/mL) |  | 1.6 µM |  |
| CC[C@H](C)[C@H](NC(=O)[C@H](CCCCN)NC(=O)[C@H](Cc1ccccc1)NC(=O)[C@H](CC(C)C)NC(=O)[C@@H]1CCCN1C(=O)[C@H](CCCCN)NC(=O)[C@H](CCCCN)NC(=O)[C@H](CO)NC(=O)[C@@H](N)CCCCN)C(=O)NC(Cc1c[nH]c2ncccc12)C(=O)N[C@@H](CCCCN)C(=O)N[C@@H](CO)C(=O)N[C@H](C(=O)N[C@@H](CCC(=O)O)C(=O)N[C@@H](CC(N)=O)C(=O)N[C@H](C(=O)N[C@@H](CO)C(=O)N[C@H](C(=O)N[C@@H](CC(C)C)C(=O)N[C@@H](Cc1c[nH]c2ccccc12)C(=O)N[C@@H](Cc1ccc(O)cc1)C(=O)N[C@@H](CCCCN)C(N)=O)C(C)C)C(C)C)C(C)C (stereo partly shown) [NCR169C17–38C12,17/S-10W^7-Aza II] (H-KSKKPLFKI[ξTrp(7-aza)]KSVENVSVLWYK-NH2; N-terminus assumed) | 3.1 µM (≈ 8.4 µg/mL) | 3.1 µM (≈ 8.4 µg/mL) | 3.1 µM (≈ 8.4 µg/mL) | 3.1 µM (≈ 8.4 µg/mL) | 3.1 µM (≈ 8.4 µg/mL) | 6.3 µM (≈ 17.1 µg/mL) | 6.3 µM (≈ 17.1 µg/mL) |  | 3.1 µM (≈ 8.4 µg/mL) |  | 3.1 µM |  |
| CC[C@H](C)[C@H](NC(=O)[C@H](CCCCN)NC(=O)[C@H](Cc1ccccc1)NC(=O)[C@H](CC(C)C)NC(=O)[C@@H]1CCCN1C(=O)[C@H](CCCCN)NC(=O)[C@H](CCCCN)NC(=O)[C@H](CO)NC(=O)[C@@H](N)CCCCN)C(=O)NC(Cc1c[nH]c2ncccc12)C(=O)N[C@@H](CCCCN)C(=O)N[C@@H](CO)C(=O)N[C@H](C(=O)N[C@@H](CCC(=O)O)C(=O)N[C@@H](CC(N)=O)C(=O)N[C@H](C(=O)N[C@@H](CO)C(=O)N[C@H](C(=O)N[C@@H](CC(C)C)C(=O)N[C@@H](Cc1c[nH]c2ccccc12)C(=O)N[C@@H](Cc1ccc(O)cc1)C(=O)N[C@@H](CCCCN)C(N)=O)C(C)C)C(C)C)C(C)C (stereo partly shown) [NCR169C17–38C12,17/S-10W^7-Aza I] (H-KSKKPLFKI[ξTrp(7-aza)]KSVENVSVLWYK-NH2; N-terminus assumed) | 3.1 µM (≈ 8.4 µg/mL) | 3.1 µM (≈ 8.4 µg/mL) | 3.1 µM (≈ 8.4 µg/mL) | 3.1 µM (≈ 8.4 µg/mL) | 6.3 µM (≈ 17.1 µg/mL) | 6.3 µM (≈ 17.1 µg/mL) | 3.1 µM (≈ 8.4 µg/mL) |  | 3.1 µM (≈ 8.4 µg/mL) |  | 3.1 µM |  |

Reference: article PMC9917201, “Enhanced Antibacterial Activity of Substituted Derivatives of NCR169C Peptide” (International Journal of Molecular Sciences, 2023)
